Test results: ChEMBL document CHEMBL6182905, “Fluorinated sulfonamide-flavonoid derivatives as novel Keap1-Nrf2 inhibitors: Potent induction of cytoprotective gene HO-1 in vivo” (Eur J Med Chem, 2025)
The source made the active and inactive calls. The rule behind the calls is not given here.

How the values were obtained:
[1] = biological target: T1, Nuclear factor erythroid 2-related factor 2 (Mus musculus) (UniProt Q60795); assay: Activation of Nrf2 in LPS-stimulated mouse AML12 cells assessed as upregulation of HO-1 mRNA expression by measuring fold change at 10 uM incubated for 16 hrs relative to sulforaphane; type: cell-based; details: filed as activator
T1 sequence (whole entry): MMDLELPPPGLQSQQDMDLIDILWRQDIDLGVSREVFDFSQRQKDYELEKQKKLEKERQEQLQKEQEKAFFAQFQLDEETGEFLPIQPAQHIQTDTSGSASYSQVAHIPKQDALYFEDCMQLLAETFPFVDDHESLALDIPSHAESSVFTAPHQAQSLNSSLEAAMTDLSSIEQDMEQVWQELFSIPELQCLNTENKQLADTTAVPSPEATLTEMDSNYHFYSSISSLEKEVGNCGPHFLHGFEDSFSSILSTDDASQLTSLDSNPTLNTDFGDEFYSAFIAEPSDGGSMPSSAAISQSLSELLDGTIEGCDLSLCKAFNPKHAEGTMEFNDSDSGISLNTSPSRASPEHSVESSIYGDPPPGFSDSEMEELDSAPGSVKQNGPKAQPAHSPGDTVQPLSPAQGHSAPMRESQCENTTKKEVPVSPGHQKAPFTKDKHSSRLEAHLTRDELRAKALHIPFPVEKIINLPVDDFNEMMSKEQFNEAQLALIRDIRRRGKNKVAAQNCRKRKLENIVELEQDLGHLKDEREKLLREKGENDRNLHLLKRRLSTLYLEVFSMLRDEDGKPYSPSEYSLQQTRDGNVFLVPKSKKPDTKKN

[2] = biological target: T1, Nuclear factor erythroid 2-related factor 2 (Mus musculus); assay: Activation of Nrf2 in LPS-stimulated mouse AML12 cells assessed as upregulation of Akr1c1 mRNA expression incubated for 16 hrs by RT-qPCR analysis; type: cell-based; details: filed as activator, dose 0.5-10 µM
[3] = biological target: T1, Nuclear factor erythroid 2-related factor 2 (Mus musculus); assay: Activation of Nrf2 in LPS-stimulated mouse AML12 cells assessed as upregulation of HO-1 protein level incubated for 16 hrs by Western blot analysis; type: cell-based; details: filed as activator, dose 0.5-10 µM
[4] = biological target: T1, Nuclear factor erythroid 2-related factor 2 (Mus musculus); assay: Activation of Nrf2 in LPS-stimulated mouse AML12 cells assessed as upregulation of GCLM protein level incubated for 16 hrs by Western blot analysis; type: cell-based; details: filed as activator, dose 0.5-10 µM
[5] = Drug concentration in plasma of APAP-induced acute liver injury male C57BL/6 mouse model at 12.5 mg/kg, ip pre-administered with compound for 1 hr followed by APAP induction and measured after 12 hrs by Mass spectrometric analysis; type: ADME, organism-based
[6] = Drug concentration in liver of APAP-induced acute liver injury male C57BL/6 mouse model at 25 mg/kg, ip pre-administered with compound for 1 hr followed by APAP induction and measured after 12 hrs by Mass spectrometric analysis; type: ADME, organism-based; details: read-out: Ct
[7] = test system: Mus musculus; assay: Anti-inflammatory activity against APAP-induced male C57BL/6 mouse model of acute liver injury assessed as upregulation of HO-1 mRNA level in liver administered intraperitoneally and measured after 12 hrs by RT-qPCR analysis; type: functional, organism-based; details: dose 12.5-25 mg/kg, route ip
[8] = test system: Mus musculus; assay: Anti-inflammatory activity against APAP-induced male C57BL/6 mouse model of acute liver injury assessed as restoration of HO-1 protein level in liver at 12.5 to 25 mg/kg, ip measured after 12 hrs by Western blot analysis; type: functional, organism-based; details: dose 12.5-25 mg/kg
[9] = test system: Mus musculus; assay: Anti-inflammatory activity against APAP-induced male C57BL/6 mouse model of acute liver injury assessed as restoration of GCLM protein level in liver at 12.5 to 25 mg/kg, ip measured after 12 hrs by Western blot analysis; type: functional, organism-based; details: dose 12.5-25 mg/kg
[10] = test system: Mus musculus; assay: In vivo induction of Nrf2 nuclear translocation in APAP-induced male C57BL/6 mouse model of acute liver injury assessed as increase in nuclear Nrf2 level at 12.5 to 25 mg/kg, ip measured after 12 hrs by Western blot analysis; type: functional, organism-based; details: dose 12.5-25 mg/kg
[11] = test system: Mus musculus; assay: In vivo inhibition of Keap1/Nrf2 protein-protein interaction in APAP-induced male C57BL/6 mouse model of acute liver injury administered intraperitoneally and measured after 12 hrs by co-immunoprecipitation analysis; type: functional, organism-based; details: dose 12.5-25 mg/kg, route ip
[12] = test system: Mus musculus; assay: Hepatoprotective activity in APAP-induced male C57BL/6 mouse model of acute liver injury assessed as reduction in ALT level in liver at 12.5 to 25 mg/kg, ip measured after 12 hrs; type: functional, organism-based; details: dose 12.5-25 mg/kg
[13] = test system: Mus musculus; assay: Hepatoprotective activity in APAP-induced male C57BL/6 mouse model of acute liver injury assessed as attenuation of catalase (CAT) level in liver at 12.5 to 25 mg/kg, ip measured after 12 hrs; type: functional, organism-based; details: dose 12.5-25 mg/kg
[14] = test system: Mus musculus; assay: Hepatoprotective activity in APAP-induced male C57BL/6 mouse model of acute liver injury assessed as attenuation of nitric oxide (NO) level in liver at 12.5 to 25 mg/kg, ip measured after 12 hrs; type: functional, organism-based; details: dose 12.5-25 mg/kg
[15] = test system: Mus musculus; assay: Hepatoprotective activity in APAP-induced male C57BL/6 mouse model of acute liver injury assessed as reduction in pathological damage in liver at 12.5 to 25 mg/kg, ip measured after 12 hrs by H and E staining based analysis; type: functional, organism-based; details: dose 12.5-25 mg/kg
[16] = test system: Mus musculus; assay: Hepatoprotective activity in APAP-induced male C57BL/6 mouse model of acute liver injury assessed as reduction in cell apoptosis in liver at 12.5 to 25 mg/kg, ip measured after 12 hrs by TUNEL assay; type: functional, organism-based; details: dose 12.5-25 mg/kg
[17] = test system: Mus musculus; assay: Anti-inflammatory activity in APAP-induced C57BL/6 mouse model of acute liver injury assessed as reduction in macrophage aggregation in liver at 12.5 to 25 mg/kg, ip measured after 12 hrs by F4/80 staining based analysis; type: functional, organism-based; details: dose 12.5-25 mg/kg
[18] = test system: Mus musculus; assay: Anti-inflammatory activity in APAP-induced C57BL/6 mouse model of acute liver injury assessed as reduction in IL-6 level in serum at 12.5 to 25 mg/kg, ip measured after 12 hrs by ELISA; type: functional, organism-based; details: dose 12.5-25 mg/kg
[19] = test system: Mus musculus; assay: Anti-inflammatory activity in APAP-induced C57BL/6 mouse model of acute liver injury assessed as reduction in TNFalpha level in serum at 12.5 to 25 mg/kg, ip measured after 12 hrs by ELISA; type: functional, organism-based; details: dose 12.5-25 mg/kg
[20] = Toxicity in C57BL/6J mouse assessed as histopathological change in respiratory tissue at 25 mg/kg, ip by H and E staining based analysis; type: organism-based; details: in vivo
[21] = Toxicity in C57BL/6J mouse assessed as histopathological change in renal tissue at 25 mg/kg, ip by H and E staining based analysis; type: organism-based; details: in vivo
[22] = Tmax in Sprague-Dawley rat at 1 mg/kg, iv; type: ADME, organism-based; details: in vivo
[23] = Cmax in Sprague-Dawley rat at 10 mg/kg, po; type: ADME, organism-based; details: in vivo
[24] = Elimination half life in Sprague-Dawley rat at 10 mg/kg, po; type: ADME, organism-based; details: in vivo, read-out: beta t1/2 (converted)
[25] = Tmax in Sprague-Dawley rat at 10 mg/kg, po; type: ADME, organism-based; details: in vivo
[26] = Absolute oral bioavailability in Sprague-Dawley rat at 10 mg/kg; type: ADME, organism-based; details: in vivo
[27] = AUC (0 to t) last in Sprague-Dawley rat at 10 mg/kg, po; type: ADME, organism-based; details: in vivo
[28] = test system: Mus musculus; assay: Hepatoprotective activity in APAP-induced Nrf2 knockout male C57BL/6 mouse model of acute liver injury assessed as effect on AST level in liver at 25 mg/kg, ip preadministered with compound followed by APAP induction and measured after 12 hrs; type: functional, organism-based

## COc1ccc(-c2cc(=O)c3ccc(NS(=O)(=O)c4ccc(F)cc4)cc3o2)cc1
[1]
  fold change (FC): 3.4
[2]
  Activity: Dose-dependent-effect
[3]
  Activity: Dose-dependent-effect
[4]
  Activity: Dose-dependent-effect
[5]
  concentration at 13 h: 50 ng/mL
[6]
  concentration at 13 h: 485 ng/g
[7]
  Activity: Dose-dependent-effect
[8]
  Activity: Active
[9]
  Activity: Active
[10]
  Activity: Active
[11]
  inhibition: Dose-dependent-effect
[12]
  Activity: Active
[13]
  Activity: Active
[14]
  Activity: Active
[15]
  Activity: Active
[16]
  Activity: Active
[17]
  Activity: Active
[18]
  Activity: Active
[19]
  Activity: Active
[20]
  Activity: Non-toxic
[21]
  Activity: Non-toxic
[22]
  Tmax: 0.17 h
[23]
  Cmax: 1300 ng/mL
[24]
  half-life: 3.47 h
[25]
  Tmax: 1.5 h
[26]
  bioavailability: 19.9%
[27]
  AUC(0-t): 7690 ng·h/mL
[28]
  Activity: No effect
